From ChEMBL document CHEMBL1201862, “PubChem BioAssay data set” (2004)
Calls of active or inactive are those of the source.

Tests used:
Cytochrome P450 2C9 = Cytochrome P450 2C9 (Homo sapiens, UniProt P11712)
Cytochrome P450 1A2 = target: T1, Cytochrome P450 1A2 (Homo sapiens, UniProt P05177);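 note: PubChem cytochrome P450 panel assay, CYP1A2 panel member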
T1 sequence (P05177 whole entry): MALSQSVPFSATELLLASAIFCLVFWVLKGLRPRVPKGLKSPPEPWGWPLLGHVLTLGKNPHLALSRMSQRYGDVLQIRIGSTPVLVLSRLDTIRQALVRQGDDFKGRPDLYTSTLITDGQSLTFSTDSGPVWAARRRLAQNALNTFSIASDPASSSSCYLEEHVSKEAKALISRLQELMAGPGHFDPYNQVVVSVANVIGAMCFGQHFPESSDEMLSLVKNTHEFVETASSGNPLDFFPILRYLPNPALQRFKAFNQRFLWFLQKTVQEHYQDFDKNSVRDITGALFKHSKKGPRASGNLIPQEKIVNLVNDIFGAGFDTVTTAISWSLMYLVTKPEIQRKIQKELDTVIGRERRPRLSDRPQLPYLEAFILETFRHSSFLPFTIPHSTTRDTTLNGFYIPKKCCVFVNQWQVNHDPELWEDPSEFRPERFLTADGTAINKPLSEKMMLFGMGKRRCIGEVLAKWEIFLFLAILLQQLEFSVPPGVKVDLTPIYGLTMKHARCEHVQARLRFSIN

MDCK = assay: antiviral activity against H1N1 influenza, dose response, cell-based, strain KY136 (AID 540257); assay type: functional; details: Canis lupus familiaris
[1] = target: T2, Replicative DNA helicase DnaB (Mycobacterium tuberculosis, UniProt P9WMR3); assay: DnaB intein splicing inhibitors, dose response, biochemical, cell-free fluorescence (AID 449749); assay type: functional
T2 sequence (P9WMR3 whole entry): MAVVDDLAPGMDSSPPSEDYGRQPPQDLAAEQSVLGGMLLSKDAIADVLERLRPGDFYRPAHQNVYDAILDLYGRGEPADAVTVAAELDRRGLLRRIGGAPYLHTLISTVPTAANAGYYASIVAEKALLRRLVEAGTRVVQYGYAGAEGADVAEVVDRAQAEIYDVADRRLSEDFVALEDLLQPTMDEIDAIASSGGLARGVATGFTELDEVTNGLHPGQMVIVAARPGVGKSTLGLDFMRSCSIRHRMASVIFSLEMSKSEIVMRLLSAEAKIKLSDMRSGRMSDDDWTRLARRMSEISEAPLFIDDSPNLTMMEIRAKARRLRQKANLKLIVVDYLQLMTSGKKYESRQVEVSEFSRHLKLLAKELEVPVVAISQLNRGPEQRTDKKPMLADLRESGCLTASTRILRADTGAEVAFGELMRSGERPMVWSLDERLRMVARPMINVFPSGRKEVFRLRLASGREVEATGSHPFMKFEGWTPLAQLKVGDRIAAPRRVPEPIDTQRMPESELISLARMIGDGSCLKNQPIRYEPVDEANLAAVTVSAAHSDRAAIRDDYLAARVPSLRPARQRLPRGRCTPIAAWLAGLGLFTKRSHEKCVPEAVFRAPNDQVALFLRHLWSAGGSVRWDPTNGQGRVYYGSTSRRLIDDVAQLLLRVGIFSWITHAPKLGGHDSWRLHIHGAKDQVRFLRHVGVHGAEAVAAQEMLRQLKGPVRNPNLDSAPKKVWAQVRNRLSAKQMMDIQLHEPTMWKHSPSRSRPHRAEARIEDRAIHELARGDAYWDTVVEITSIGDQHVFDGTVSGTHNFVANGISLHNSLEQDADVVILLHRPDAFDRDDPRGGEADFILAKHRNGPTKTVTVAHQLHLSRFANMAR

Cytochrome P450 2C19 = Cytochrome P450 2C19 (Homo sapiens, UniProt P33261); assay: Cytochrome panel assay with activity outcomes. Panel member name: p450-cyp2c19 Compounds with AC50 equal or less than 10 uM are considered active; assay type: functional
Cytochrome P450 2C19, sequence (P33261 whole entry): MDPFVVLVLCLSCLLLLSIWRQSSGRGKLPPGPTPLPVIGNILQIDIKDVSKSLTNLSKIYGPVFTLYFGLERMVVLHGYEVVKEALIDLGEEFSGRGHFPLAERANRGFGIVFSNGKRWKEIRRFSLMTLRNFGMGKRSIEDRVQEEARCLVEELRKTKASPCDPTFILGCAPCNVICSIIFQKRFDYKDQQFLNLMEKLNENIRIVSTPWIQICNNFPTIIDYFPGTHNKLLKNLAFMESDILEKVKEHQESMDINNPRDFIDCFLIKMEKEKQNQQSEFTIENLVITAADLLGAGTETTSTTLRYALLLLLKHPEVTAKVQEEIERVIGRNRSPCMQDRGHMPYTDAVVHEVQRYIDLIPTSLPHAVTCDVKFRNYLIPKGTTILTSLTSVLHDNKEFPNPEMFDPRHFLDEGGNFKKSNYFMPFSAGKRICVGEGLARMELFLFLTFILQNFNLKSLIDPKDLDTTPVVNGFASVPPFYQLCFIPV

Nonstructural protein 1 = Nonstructural protein 1 (Influenza A virus, UniProt Q194T2); assay type: functional, Influenza A virus (A/California/07/2009(H1N1))
Nonstructural protein 1, sequence (Q194T2 whole entry): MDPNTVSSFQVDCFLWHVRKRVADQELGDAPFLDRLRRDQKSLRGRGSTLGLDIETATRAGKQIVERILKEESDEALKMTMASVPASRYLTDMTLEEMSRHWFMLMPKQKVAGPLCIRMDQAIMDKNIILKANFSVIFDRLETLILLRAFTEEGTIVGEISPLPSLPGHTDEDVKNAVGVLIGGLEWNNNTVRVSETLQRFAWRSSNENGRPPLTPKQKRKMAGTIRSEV

Protein RecA = target: T3, Protein RecA (Mycobacterium tuberculosis, UniProt P9WHJ3); assay: Fluorescence Cell-Free Homogeneous Dose Retest to Identify Inhibitors of RecA-Intein Splicing Activity. [Related pubchem assays (depositor defined):AID2097, AID2223, AID489010, AID492950]; assay type: functional
T3 sequence (P9WHJ3 whole entry): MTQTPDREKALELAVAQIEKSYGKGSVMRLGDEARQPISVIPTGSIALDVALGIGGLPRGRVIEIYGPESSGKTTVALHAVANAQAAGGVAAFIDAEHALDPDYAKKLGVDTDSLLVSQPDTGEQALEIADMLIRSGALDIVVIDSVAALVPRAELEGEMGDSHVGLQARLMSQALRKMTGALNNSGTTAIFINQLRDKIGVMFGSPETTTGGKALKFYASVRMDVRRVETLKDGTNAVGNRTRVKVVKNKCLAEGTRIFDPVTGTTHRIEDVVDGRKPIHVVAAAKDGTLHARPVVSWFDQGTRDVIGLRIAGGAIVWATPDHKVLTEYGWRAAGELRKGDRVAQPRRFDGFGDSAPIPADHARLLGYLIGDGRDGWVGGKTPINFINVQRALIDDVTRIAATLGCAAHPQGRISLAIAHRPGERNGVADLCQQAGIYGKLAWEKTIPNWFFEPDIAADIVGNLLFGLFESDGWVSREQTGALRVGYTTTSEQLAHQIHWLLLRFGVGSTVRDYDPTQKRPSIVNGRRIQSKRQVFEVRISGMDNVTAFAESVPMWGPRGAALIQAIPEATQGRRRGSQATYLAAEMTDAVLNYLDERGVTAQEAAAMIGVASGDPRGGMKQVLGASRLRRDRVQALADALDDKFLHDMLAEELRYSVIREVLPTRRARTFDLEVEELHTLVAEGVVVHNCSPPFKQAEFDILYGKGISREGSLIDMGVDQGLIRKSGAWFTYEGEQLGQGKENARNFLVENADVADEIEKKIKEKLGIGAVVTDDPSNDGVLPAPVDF

[2] = target: Dual specificity protein phosphatase 3 (Homo sapiens, UniProt P51452); assay: SAR VHR1 Fluorescent Assay for In Vitro dose response studies Set 3. [Related pubchem assays (depositor defined):AID1654, AID1661, AID1878]; assay type: functional
Dual specificity protein phosphatase 3, sequence (P51452 whole entry): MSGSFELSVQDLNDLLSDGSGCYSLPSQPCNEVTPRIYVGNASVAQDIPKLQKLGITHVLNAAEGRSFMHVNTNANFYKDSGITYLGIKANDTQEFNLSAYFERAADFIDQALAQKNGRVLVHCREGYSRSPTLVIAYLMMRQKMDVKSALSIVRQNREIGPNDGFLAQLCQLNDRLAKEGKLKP

HEK293 [3] = assay: cells; assay type: functional, cell-based; details: Homo sapiens
[4] = target: T4, Voltage-gated N-type calcium channel alpha-1B subunit/Amyloid beta A4 precursor protein-binding family A member 1 (Homo sapiens, UniProt Q00975+Q02410); assay type: protein assay
T4 sequence (Q00975 whole entry): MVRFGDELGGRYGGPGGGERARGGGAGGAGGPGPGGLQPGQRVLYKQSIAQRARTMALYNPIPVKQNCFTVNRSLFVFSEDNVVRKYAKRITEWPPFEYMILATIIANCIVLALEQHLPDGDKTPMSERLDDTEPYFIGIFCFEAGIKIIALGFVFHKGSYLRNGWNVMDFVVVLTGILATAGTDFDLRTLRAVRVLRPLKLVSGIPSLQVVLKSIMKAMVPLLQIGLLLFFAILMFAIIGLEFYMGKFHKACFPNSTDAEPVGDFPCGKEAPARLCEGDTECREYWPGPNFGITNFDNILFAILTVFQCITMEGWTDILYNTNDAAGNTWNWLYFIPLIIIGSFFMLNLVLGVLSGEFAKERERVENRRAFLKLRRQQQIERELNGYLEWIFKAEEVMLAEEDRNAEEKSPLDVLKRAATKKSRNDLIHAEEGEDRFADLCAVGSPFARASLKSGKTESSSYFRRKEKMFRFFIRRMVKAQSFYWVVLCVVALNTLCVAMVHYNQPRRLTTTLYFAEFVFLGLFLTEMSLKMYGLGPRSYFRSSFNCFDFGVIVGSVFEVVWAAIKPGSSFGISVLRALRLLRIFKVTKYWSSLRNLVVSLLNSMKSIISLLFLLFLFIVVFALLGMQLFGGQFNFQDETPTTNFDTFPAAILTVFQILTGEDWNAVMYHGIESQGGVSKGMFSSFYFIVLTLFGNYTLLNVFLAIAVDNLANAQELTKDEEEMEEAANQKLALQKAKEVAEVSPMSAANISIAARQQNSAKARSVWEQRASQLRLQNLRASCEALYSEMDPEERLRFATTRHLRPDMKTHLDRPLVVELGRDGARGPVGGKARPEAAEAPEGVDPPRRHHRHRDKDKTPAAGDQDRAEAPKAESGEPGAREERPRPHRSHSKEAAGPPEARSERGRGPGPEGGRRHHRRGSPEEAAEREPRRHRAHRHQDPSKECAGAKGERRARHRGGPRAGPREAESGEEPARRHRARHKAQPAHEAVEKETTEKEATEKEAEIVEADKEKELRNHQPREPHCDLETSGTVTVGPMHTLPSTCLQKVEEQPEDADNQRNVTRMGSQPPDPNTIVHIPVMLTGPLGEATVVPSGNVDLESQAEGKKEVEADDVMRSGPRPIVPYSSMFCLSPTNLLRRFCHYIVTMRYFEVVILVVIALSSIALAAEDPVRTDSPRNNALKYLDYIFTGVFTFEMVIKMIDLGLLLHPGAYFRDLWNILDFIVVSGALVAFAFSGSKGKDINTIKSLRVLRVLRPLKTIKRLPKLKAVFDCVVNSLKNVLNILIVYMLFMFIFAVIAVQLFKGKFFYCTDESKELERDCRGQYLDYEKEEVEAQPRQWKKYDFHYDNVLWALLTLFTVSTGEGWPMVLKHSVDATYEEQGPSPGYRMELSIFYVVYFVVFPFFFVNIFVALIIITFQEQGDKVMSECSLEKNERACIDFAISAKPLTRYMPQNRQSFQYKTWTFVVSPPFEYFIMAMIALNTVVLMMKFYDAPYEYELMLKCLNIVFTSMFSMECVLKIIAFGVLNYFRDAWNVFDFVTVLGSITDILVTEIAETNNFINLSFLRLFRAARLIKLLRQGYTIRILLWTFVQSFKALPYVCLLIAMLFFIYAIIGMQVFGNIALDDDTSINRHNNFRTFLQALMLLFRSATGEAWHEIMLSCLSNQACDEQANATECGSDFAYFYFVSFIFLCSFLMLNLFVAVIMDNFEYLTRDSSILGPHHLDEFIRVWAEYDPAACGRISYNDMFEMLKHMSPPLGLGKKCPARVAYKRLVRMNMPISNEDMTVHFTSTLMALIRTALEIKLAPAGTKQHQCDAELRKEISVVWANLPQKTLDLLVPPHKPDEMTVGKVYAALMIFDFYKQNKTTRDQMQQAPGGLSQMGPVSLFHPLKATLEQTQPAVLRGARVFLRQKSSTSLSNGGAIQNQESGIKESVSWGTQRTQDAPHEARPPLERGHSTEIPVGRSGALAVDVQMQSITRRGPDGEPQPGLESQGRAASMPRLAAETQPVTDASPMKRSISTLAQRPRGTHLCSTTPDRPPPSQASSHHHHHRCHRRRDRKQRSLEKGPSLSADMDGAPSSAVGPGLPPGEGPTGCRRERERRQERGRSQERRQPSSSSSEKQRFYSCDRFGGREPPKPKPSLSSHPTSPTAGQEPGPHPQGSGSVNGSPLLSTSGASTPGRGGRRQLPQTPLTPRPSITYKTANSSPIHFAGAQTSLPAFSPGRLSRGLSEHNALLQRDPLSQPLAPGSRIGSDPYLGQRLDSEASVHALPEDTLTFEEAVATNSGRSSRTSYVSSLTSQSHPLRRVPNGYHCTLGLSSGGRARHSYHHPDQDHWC
T4 sequence (Q02410 whole entry): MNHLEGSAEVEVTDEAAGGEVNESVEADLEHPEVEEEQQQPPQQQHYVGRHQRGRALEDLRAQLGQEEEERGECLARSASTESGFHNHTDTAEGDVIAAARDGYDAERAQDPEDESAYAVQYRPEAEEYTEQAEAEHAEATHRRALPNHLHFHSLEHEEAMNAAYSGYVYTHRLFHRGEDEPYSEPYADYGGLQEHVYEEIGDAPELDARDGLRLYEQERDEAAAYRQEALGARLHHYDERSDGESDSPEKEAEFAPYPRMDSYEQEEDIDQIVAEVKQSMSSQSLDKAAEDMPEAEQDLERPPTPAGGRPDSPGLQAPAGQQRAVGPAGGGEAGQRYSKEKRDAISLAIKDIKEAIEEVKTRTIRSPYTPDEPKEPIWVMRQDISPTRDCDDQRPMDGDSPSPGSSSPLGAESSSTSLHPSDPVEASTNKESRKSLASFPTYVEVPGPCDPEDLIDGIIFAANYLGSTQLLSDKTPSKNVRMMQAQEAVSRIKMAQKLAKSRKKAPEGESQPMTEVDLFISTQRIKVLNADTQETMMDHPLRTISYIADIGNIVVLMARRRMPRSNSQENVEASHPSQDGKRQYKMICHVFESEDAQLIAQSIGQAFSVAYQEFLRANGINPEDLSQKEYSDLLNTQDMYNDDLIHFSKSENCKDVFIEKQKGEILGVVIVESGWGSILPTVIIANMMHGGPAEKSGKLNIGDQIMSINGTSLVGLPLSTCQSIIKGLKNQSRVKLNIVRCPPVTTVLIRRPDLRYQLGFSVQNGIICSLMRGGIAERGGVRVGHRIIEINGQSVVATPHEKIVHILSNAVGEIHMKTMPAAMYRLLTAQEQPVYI

HEK293 [5] = assay: NOD2 signaling inhibitors in MDP-stimulated cells, cell-based, uHTS, luminescence (AID 2001); assay type: functional; details: Homo sapiens
HEK293 [6] = assay: cells; assay type: functional, cell-based; details: Homo sapiens; remark: listed apart in the source
[7] = target: T4, Voltage-gated N-type calcium channel alpha-1B subunit/Amyloid beta A4 precursor protein-binding family A member 1; assay type: protein assay; remark: listed apart in the source
[8] = target: T5, Apoptotic protease-activating factor 1 (Homo sapiens, UniProt O14727); assay type: functional
T5 sequence (O14727 whole entry): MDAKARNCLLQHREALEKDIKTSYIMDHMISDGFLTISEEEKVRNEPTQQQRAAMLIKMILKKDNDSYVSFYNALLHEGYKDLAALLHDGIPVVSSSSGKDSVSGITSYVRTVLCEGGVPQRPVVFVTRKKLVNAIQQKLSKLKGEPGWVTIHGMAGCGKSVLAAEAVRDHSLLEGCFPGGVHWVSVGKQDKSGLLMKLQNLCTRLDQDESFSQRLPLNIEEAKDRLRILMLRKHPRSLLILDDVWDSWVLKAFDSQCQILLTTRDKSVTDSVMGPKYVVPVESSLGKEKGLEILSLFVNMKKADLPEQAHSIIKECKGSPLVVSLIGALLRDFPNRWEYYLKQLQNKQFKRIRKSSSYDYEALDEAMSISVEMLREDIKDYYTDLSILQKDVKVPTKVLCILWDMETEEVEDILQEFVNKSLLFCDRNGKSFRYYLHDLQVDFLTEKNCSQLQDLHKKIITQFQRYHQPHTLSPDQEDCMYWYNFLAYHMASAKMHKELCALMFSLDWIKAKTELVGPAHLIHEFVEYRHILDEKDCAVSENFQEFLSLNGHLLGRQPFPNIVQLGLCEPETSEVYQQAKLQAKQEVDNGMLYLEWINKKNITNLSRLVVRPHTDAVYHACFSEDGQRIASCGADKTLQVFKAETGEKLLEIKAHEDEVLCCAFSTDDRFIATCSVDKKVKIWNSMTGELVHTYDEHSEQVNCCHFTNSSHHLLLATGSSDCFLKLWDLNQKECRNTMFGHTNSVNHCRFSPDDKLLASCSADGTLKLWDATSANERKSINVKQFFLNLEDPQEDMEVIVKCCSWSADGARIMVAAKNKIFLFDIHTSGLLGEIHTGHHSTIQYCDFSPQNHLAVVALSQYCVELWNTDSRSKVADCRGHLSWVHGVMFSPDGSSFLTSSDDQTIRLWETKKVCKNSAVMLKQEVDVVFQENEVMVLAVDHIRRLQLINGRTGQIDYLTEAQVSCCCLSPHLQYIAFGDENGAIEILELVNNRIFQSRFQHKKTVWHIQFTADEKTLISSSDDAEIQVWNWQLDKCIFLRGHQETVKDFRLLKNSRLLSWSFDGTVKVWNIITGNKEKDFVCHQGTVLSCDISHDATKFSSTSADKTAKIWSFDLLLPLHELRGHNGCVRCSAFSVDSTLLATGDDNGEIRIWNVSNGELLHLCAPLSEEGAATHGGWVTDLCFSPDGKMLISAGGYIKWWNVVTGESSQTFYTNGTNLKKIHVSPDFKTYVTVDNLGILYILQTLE

HEK293 [9] = assay: NOD1 signaling inhibitors, primary screen, cell-based, luminescence, uHTS (AID 1578); assay type: functional; details: Homo sapiens
[10] = target: Nucleotide-binding oligomerization domain-containing protein 2 (Homo sapiens, UniProt Q9HC29); assay: NOD2 signaling inhibitors, cell-based, luminescence, uHTS, HEK293 (AID 1566); assay type: functional
HEK293 [11] = assay: cells; assay type: functional, cell-based; details: Homo sapiens; remark: listed apart in the source
[12] = growth induction of Burl-1 ts yeast mutant, dose response, counter-screen for SUMOylation pathway inhibitor project, whole organism, S. cerevisiae, luminescence (AID 463199); assay type: functional
[13] = Late-stage probe development counterscreen for inhibitors of the Hepatitis C Virus non-structural protein 3 helicase (NS3): luminescence-based cell-based dose response assay to determine whether compounds that inhibit replication of HCV RNA replicon are cytotoxic. [Related pubchem assays (depositor defined):AID1800, AID1830, AID1845, AID1943, AID1945, AID2172, AID2173, AID2474, AID2476]; assay type: functional
[14] = cytotoxicity in HMLE control line with eGFP shRNA, dose response, counter-screen for HMLE_sh_ECad selective toxicity project, cell-based, HMLE_sh_eGFP, luminescence (AID 463074); assay type: functional, Homo sapiens;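 note: HMLE human mammary epithelial cells expressing control shRNA against eGFP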
[15] = Luminescence Cell-Based Dose Retest to Confirm Inhibitors of Cancer Stem Cells. [Related pubchem assays (depositor defined):AID2717, AID2721]; assay type: functional; details: Homo sapiens
[16] = HepG2 cell cytotoxicity, dose response, cytotoxicity control for Shn3 inhibitor project, CellTiter-Glo, cherry-picked (AID 624134); assay type: functional, cell-based
[17] = control 3'UTR Renilla luciferase suppression, dose response, counter-screen for Shn3 inhibitor project, cell-based, Clone20-Shn3RL, cherry-picked (AID 624133); assay type: functional
[18] = target: E3 ubiquitin-protein ligase Mdm2 (Homo sapiens, UniProt Q00987); assay: enhancers of MDM2-luciferase reporter signal, concentration-effect titration, project on inhibitors of MDM2 ubiquitin ligase, cellular assay, luminescent readout, 384-well plate format (AID 1394); assay type: functional;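 note: MDM2 E3 inhibitors raise luminescence so EC50 is for signal enhancement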
E3 ubiquitin-protein ligase Mdm2, sequence (Q00987 whole entry): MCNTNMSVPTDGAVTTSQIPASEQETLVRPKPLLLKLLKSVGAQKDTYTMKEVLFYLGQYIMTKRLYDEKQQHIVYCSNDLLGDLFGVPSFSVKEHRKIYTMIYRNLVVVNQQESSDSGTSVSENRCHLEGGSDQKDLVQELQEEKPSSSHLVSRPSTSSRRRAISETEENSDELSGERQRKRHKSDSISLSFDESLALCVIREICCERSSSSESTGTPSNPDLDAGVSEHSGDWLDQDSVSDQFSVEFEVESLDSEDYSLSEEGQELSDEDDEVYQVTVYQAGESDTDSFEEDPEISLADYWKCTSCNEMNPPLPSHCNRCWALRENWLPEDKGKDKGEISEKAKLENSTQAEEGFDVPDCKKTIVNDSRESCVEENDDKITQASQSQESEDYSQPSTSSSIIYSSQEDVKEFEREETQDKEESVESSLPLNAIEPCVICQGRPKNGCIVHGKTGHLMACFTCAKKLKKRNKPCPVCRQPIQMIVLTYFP

Cytochrome P450 2C9, sequence (P11712 whole entry): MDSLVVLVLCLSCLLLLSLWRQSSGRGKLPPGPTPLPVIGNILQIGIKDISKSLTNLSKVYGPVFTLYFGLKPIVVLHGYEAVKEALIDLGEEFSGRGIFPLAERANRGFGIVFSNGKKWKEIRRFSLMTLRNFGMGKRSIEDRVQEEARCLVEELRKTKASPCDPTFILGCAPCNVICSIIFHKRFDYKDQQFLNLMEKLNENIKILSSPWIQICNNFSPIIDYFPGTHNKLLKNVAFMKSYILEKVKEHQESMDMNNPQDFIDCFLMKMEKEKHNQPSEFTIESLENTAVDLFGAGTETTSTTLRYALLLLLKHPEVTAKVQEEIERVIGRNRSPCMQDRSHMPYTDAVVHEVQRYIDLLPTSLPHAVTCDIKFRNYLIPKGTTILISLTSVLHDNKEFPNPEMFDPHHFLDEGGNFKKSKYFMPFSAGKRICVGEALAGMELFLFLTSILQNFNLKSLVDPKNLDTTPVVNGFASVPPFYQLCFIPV

CC1(C)c2ssc(=S)c2-c2ccccc2N1C(=O)CSC1=NCCS1
AC50 (Cytochrome P450 2C9): 2.82 µM (inconclusive)
AC50 (Cytochrome P450 1A2): 2 µM (inconclusive)
IC50 (MDCK): > 100 µM (active)
AC50 [1]: 5.8 µM (active)
AC50 (Cytochrome P450 2C19; read-out: AC50): 0.891 µM (inconclusive)
IC50 (Nonstructural protein 1): 27.7 µM (active)
EC50 (Protein RecA): 4.27 µM (active)

Cn1c(SCC(=O)Nc2ccc3nc(SCC(=O)c4ccc(Cl)cc4)sc3c2)nnc1-c1ccc(N)cc1
IC50 [2]: 40.6 µM (active)

CCCCCCc1cc2cc(-c3nnc(-c4ccccc4OC)o3)c(=O)oc2cc1O
IC50 (HEK293 [3]): 9.41 µM (active)
IC50 [4]: > 56.8 µM (not active)
IC50 (HEK293 [5]): 8.48 µM (active)
IC50 (HEK293 [6]): > 20 µM (inactive)
IC50 [7]: > 50 µM (inactive)
IC50 [8]: 15.9 µM (active)
EC50 (HEK293 [9]): 6.54 µM (active)
EC50 [10]: > 20 µM (inactive)
IC50 (HEK293 [11]): > 20 µM (inactive)

Oc1nncc(-c2ccccc2)n1
AC50 (Cytochrome P450 1A2): 14.1 µM (inconclusive)
AC50 [12]: 58.5 µM (active)
AC50 (Cytochrome P450 2C19): inconclusive

COc1ccc(C=NNC(=O)c2cc(O)c(O)c(O)c2)cc1COc1ccc(C(=O)OCC(C)C)cc1
CC50 [13]: > 100 µM (inactive)

O=C1N/C(=C/c2ccc(N3CCOCC3)o2)C(=O)N1c1ccccc1
AC50 [14]: 45.7 µM (active)
AC50 [15]: > 195 µM (inactive)
AC50 [16]: > 70 µM (inactive)
AC50 [17]: 5.03 µM (active)
EC50 [18]: 6.73 µM (not active)
